# Reference: ChEMBL document CHEMBL5376007, “Discovery of Novel PD-L1 Inhibitors That Induce the Dimerization, Internalization, and Degradation of PD-L1 Based on the Fragment Coupling Strategy” (J Med Chem, 2023)
# Active and inactive are the calls of the source. No cut-off for these calls is given here.
# Legend:
# [1] = biological target: Programmed cell death protein 1/Programmed cell death 1 ligand 1 (Homo sapiens, UniProt Q9NZQ7); experiment: Inhibition of interaction of Fc(IgG1)-Avi)-(Biotin)-fused human PDL1 (19 to 239 residues)/Eu-labeled human PD-1 (25 to 167 residues) expressed in HEK293 cells pretreated with PDL1 for 15 mins followed by PD-1 addition and measured after 90 mins by TR-FRET assay; format: cell-based
# [2] = biological target: T1, Programmed cell death 1 ligand 1 (Homo sapiens, UniProt Q9NZQ7); experiment: Inhibition of human recombinant PDL1 expressed in HEK293 cells assessed as restoration of Jurkat T cell activity by measuring increase in IFNgamma secretion at 1 uM incubated for 24 hrs by ELISA; format: cell-based; design: Activity: scale not given: the % may be the effect or the level left
# CT26 [3] = experiment: Antitumor activity against mouse CT26 cells xenografted in BALB/c mouse assessed as inhibition of tumor growth at 20 mg/kg, ip qd for 2 weeks; format: functional, organism-based
# CT26 [4] = experiment: Antitumor immunity against mouse CT26 cells xenografted in BALB/c mouse assessed as increase in infiltration of CD8+ cells in tumor at 20 mg/kg, ip qd for 2 weeks by immunohistochemical staining based analysis; format: functional, organism-based
# CT26 [5] = experiment: In vivo inhibition of PDL1 in BALB/c mouse xenografted with mouse CT26 cells assessed as induction of PDL1 degradation by measuring decrease in PDL1 protein expression in tumor at 20 mg/kg, ip qd for 2 weeks by immunohistochemical staining based analysis; format: functional, organism-based
# [6] = biological target: T1, Programmed cell death 1 ligand 1; experiment: Inhibition of PDL1 in human RKO cells assessed as […] PDL1 internalization into cytosol at 2 uM by immunofluorescence assay; format: subcellular; conditions: time 2-6 hrs, TDE = time-dependent effect
# CT26 [7] = experiment: In vivo inhibition of PDL1 in BALB/c mouse xenografted with mouse CT26 cells assessed as induction of PDL1 degradation by measuring decrease in PDL1 protein expression in tumor at 10 to 20 mg/kg, ip qd for 2 weeks by immunohistochemical staining based analysis; format: functional, organism-based; conditions: dose 10-20 mg/kg
# [8] = Half life in Sprague-Dawley rat at 5 mg/kg, iv by LC-MS/MS analysis; format: ADME, organism-based; conditions: in vivo
# [9] = biological target: T1, Programmed cell death 1 ligand 1; experiment: Inhibition of PDL1 in human RKO cells assessed as […] PDL1 internalization into cytosol incubated for 12 hrs by immunofluorescence assay; format: subcellular; conditions: dose 0.5-2 µM
# NCM460 = experiment: Cytotoxicity against human NCM460 cells assessed as cell viability at 0.625 to 10 uM incubated for 24 hrs by CCK8 assay; format: toxicity, cell-based; conditions: ncm460, 24 h, dose 0.625-10 µM
# [10] = AUC(0 to t) in Sprague-Dawley rat at 5 mg/kg, iv by LC-MS/MS analysis; format: ADME, organism-based; design: dose 5 mg/kg, route iv; conditions: in vivo
# [11] = Oral bioavailability in Sprague-Dawley rat at 25 mg/kg by LC-MS/MS analysis; format: ADME, organism-based; conditions: in vivo
# [12] = biological target: T1, Programmed cell death 1 ligand 1; experiment: Inhibition of human recombinant PDL1 expressed in HEK293 cells assessed as restoration of Jurkat T cell activity by measuring increase in IL-2 secretion at 2.5 uM incubated for 24 hrs in presence of PD-L1v242 by ELISA; format: cell-based
# CT26 [13] = experiment: Antitumor activity against mouse CT26 cells xenografted in BALB/c mouse assessed as inhibition of tumor growth administered ip qd for 2 weeks; format: functional, organism-based; conditions: dose 10-20 mg/kg
# [14] = Half life in Sprague-Dawley rat at 25 mg/kg, po by LC-MS/MS analysis; format: ADME, organism-based; conditions: in vivo
# L02 = experiment: Cytotoxicity against human L02 cells assessed as cell viability at 0.625 to 10 uM incubated for 24 hrs by CCK8 assay; format: toxicity, cell-based; conditions: l02, 24 h, dose 0.625-10 µM
# [15] = Cmax in Sprague-Dawley rat at 5 mg/kg, iv by LC-MS/MS analysis; format: ADME, organism-based; design: dose 5 mg/kg, route iv; conditions: in vivo
# CT26 [16] = experiment: Antitumor activity against mouse CT26 cells xenografted in BALB/c mouse assessed as decrease in tumor weight at 20 mg/kg, ip qd for 2 weeks; format: functional; conditions: CT26, 336 h
# [17] = biological target: T1, Programmed cell death 1 ligand 1; experiment: Inhibition of human recombinant PDL1 expressed in HEK293 cells assessed as restoration of Jurkat T cell activity by measuring increase in IL-2 secretion incubated for 24 hrs by ELISA; format: cell-based; conditions: dose 0.3125-2.5 µM
# [18] = Tmax in Sprague-Dawley rat at 25 mg/kg, po by LC-MS/MS analysis; format: ADME, organism-based; conditions: in vivo
# CT26 [19] = experiment: Antitumor activity against mouse CT26 cells xenografted in BALB/c mouse assessed as decrease in tumor weight at 10 mg/kg, ip qd for 2 weeks; format: functional; conditions: CT26, 336 h
# [20] = Toxicity against BALB/c mouse xenografted with mouse CT26 cells assessed as mortality at 10 to 20 mg/kg, ip qd for 2 weeks; format: organism-based; conditions: in vivo, 336 h, dose 10-20 mg/kg
# CT26 [21] = experiment: Antitumor immunity against mouse CT26 cells xenografted in BALB/c mouse assessed as increase in infiltration of CD8+ cells in tumor administered ip qd for 2 weeks by immunohistochemical staining based analysis; format: functional, organism-based; conditions: dose 10-20 mg/kg
# [22] = Cmax in Sprague-Dawley rat at 25 mg/kg, po by LC-MS/MS analysis; format: ADME, organism-based; design: dose 25 mg/kg, route po; conditions: in vivo
# [23] = Toxicity against BALB/c mouse xenografted with mouse CT26 cells assessed as body weight loss at 10 to 20 mg/kg, ip qd for 2 weeks; format: organism-based; conditions: in vivo, 336 h, dose 10-20 mg/kg
# [24] = biological target: T1, Programmed cell death 1 ligand 1; experiment: Inhibition of PDL1 in human MDA-MB-231 cells assessed as induction of PDL1 degradation at 1 to 5 uM incubated for 24 hrs by western blot analysis; format: cell-based; conditions: dose 1-5 µM
# [25] = Tmax in Sprague-Dawley rat at 5 mg/kg, iv by LC-MS/MS analysis; format: ADME, organism-based; conditions: in vivo
# [26] = biological target: T1, Programmed cell death 1 ligand 1; experiment: Inhibition of PDL1 (unknown origin) assessed as induction of PDL1 dimerization at protein to compound concentration ratio of 1:2 incubated for overnight by SEC analysis
# [27] = AUC(0 to t) in Sprague-Dawley rat at 25 mg/kg, po by LC-MS/MS analysis; format: ADME, organism-based; design: dose 25 mg/kg, route po; conditions: in vivo
# [28] = biological target: Programmed cell death 1 ligand 1 (Mus musculus, UniProt Q9EP73); experiment: Binding affinity to RED-NHS dye labeled mouse PDL1 incubated for 10 mins away from light by microscale thermophoresis analysis
# CT26 [29] = experiment: Antitumor activity against mouse CT26 cells xenografted in BALB/c mouse assessed as tumor shrinkage and reduction of tumor growth at 20 mg/kg, ip qd for 2 weeks by Hematoxylin-eosin staining based analysis; format: functional, organism-based
# MDA-MB-231 = experiment: Antitumor activity against human MDA-MB-231 cells cocultured with CD3/CD28/CD2 T cell activator stimulated human PBMC cells assessed as increase in tumor cell viability incubated for 12 hrs by LDH assay; conditions: MDA-MB-231, 12 h
# [30] = biological target: T1, Programmed cell death 1 ligand 1; experiment: Binding affinity to RED-NHS dye labeled human PDL1 incubated for 10 mins away from light by microscale thermophoresis analysis
# Sequence of Programmed cell death protein 1/Programmed cell death 1 ligand 1 (Q15116 whole entry, the tested form may be a part): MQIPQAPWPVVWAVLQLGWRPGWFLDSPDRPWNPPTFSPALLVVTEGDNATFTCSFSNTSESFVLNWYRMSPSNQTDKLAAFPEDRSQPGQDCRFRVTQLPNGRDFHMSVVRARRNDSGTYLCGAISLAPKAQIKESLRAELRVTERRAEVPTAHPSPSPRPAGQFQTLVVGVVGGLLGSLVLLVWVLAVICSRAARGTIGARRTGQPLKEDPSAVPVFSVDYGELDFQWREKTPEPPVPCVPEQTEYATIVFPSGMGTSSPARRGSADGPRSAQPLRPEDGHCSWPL
# Sequence of Programmed cell death protein 1/Programmed cell death 1 ligand 1 (Q9NZQ7 whole entry, the tested form may be a part): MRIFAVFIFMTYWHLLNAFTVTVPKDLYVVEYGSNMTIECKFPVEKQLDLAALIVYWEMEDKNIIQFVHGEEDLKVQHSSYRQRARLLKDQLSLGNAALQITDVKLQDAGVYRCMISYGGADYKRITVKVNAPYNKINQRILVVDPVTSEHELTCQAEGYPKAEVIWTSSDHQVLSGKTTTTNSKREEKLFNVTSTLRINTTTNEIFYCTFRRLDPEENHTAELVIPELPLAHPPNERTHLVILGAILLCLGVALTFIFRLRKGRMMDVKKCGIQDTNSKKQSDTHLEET
# T1 sequence (Q9NZQ7 whole entry): as the sequence (Q9NZQ7 whole entry, the tested form may be a part) above
# Sequence of Programmed cell death 1 ligand 1 (Mus musculus, UniProt Q9EP73) (Q9EP73 whole entry): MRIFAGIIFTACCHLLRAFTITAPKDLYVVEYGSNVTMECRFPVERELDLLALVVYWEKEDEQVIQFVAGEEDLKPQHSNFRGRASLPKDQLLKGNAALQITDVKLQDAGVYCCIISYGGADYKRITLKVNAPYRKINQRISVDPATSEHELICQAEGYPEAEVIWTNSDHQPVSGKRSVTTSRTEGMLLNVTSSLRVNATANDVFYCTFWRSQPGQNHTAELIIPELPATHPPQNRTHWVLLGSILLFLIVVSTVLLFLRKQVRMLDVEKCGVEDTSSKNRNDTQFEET
smiles,measurement,setting,value
COc1nc(O[C@H]2CCc3c(-c4cccc(C(=O)Nc5ccc(CNCCO)c(F)n5)c4Cl)cccc32)c(Cl)cc1CNCCO,IC50,[1],16.1 nM
Cc1c(-c2nnc(Nc3ccc(CN4CC[C@@H](O)C4)cc3)o2)cccc1-c1cccc(-c2nnc(Nc3cccc(CN4CC[C@@H](O)C4)c3)o2)c1C,IC50,[1],1180 nM
Cc1c(-c2ccc(CNCCO)cc2)cccc1-c1cccc(-c2nnc(Nc3cccc(CNCCO)c3)o2)c1C,IC50,[1],37.2 nM
COc1nc(-c2cccc(-c3cccc(-c4nnc(Nc5cccc(CNCCO)c5)o4)c3C)c2C)ccc1CNCCO,inhibition,[2],Active
same,IC50,[1],13.9 nM
Cc1c(-c2nnc(Nc3cccc(CNCCO)c3)o2)cccc1-c1cccc(-c2nnc(Nc3cccc(CNCCO)c3)o2)c1C,IC50,[1],78.4 nM
CC(=O)NCCNCc1cccc(Nc2nnc(-c3cccc(-c4cccc(-c5nnc(Nc6cccc(CNCCO)c6)o5)c4C)c3C)o2)c1,IC50,[1],38 nM
CC(=O)NCCNCc1cccc(Nc2nnc(-c3cccc(-c4cccc(-c5nnc(Nc6cccc(CNCCNC(C)=O)c6)o5)c4C)c3C)o2)c1,IC50,[1],58.8 nM
COc1nc(O[C@H]2CCc3c(-c4cccc(C(=O)Nc5ccc(CNCCNC(C)=O)c(C(F)(F)F)n5)c4Cl)cccc32)c(Cl)cc1CNCCNC(C)=O,IC50,[1],18.8 nM
COc1nc(O[C@H]2CCc3c(-c4cccc(C(=O)Nc5ccc(CNCCNC(C)=O)c(F)n5)c4Cl)cccc32)c(Cl)cc1CNCCNC(C)=O,IC50,[1],15.6 nM
Cc1c(-c2nnc(Nc3cccc(CNCCO)c3)o2)cccc1-c1cccc(C(=O)Nc2ccc(CNCCO)cn2)c1Cl,IC50,[1],8.2 nM
COc1nc(-c2cccc(-c3cccc(-c4nnc(Nc5cccc(CNCCO)c5)o4)c3C)c2C)ccc1CNCCNC(C)=O,Activity,[2],66%
same,IC50,[1],23.5 nM
COc1nc(O[C@H]2CCc3c(-c4cccc(C(=O)Nc5ccc(CNCCN(C)C)cn5)c4Cl)cccc32)c(Cl)cc1CNCCN(C)C,IC50,[1],4.2 nM
CC(=O)NCCNCc1ccc(Nc2nnc(-c3cccc(-c4cccc(-c5nnc(Nc6cccc(CNCCNC(C)=O)c6)o5)c4C)c3C)o2)cc1,IC50,[1],893 nM
COc1nc(O[C@H]2CCc3c(-c4cccc(C(=O)Nc5ccc(CNCCNC(C)=O)cn5)c4Cl)cccc32)c(Cl)cc1CNCCNC(C)=O,inhibition,[2],Active
same,IC50,[1],4.1 nM
Cc1c(-c2nnc(Nc3cccc(CN4CC[C@@H](O)C4)c3)o2)cccc1-c1cccc(-c2nnc(Nc3cccc(CN4CC[C@@H](O)C4)c3)o2)c1C,inhibition,[2],Active
same,IC50,[1],30.9 nM
Cc1c(C(=O)Nc2ccc(CNCCO)cc2)cccc1-c1cccc(-c2nnc(Nc3cccc(CNCCO)c3)o2)c1C,IC50,[1],127 nM
Cc1c(-c2cccc(-c3nnc(Nc4cccc(CNCCO)c4)o3)c2)cccc1-c1nnc(Nc2cccc(CN3CC[C@@H](O)C3)c2)o1,IC50,[1],51.6 nM
Cc1c(C(=O)Nc2ccc(CNCCO)cn2)cccc1-c1cccc(-c2nnc(Nc3cccc(CNCCO)c3)o2)c1C,IC50,[1],14.5 nM
Cc1c(Nc2nccc3cc(CN4CC[C@@H](O)C4)cnc23)cccc1-c1cccc(-c2nc3cc(CN4CC[C@@H](C(=O)O)C4)cc(C#N)c3o2)c1C,Activity,CT26 [3],Active
same,Activity,CT26 [4],Active
same,inhibition,CT26 [5],inactive
Cc1c(-c2nnc(Nc3cccc(CNCC(=O)O)c3)o2)cccc1-c1cccc(-c2nnc(Nc3cccc(CNCC(=O)O)c3)o2)c1C,IC50,[1],68.8 nM
COc1nc(O[C@H]2CCc3c(-c4cccc(C(=O)Nc5ccc(CNCCO)c(C(F)(F)F)n5)c4Cl)cccc32)c(Cl)cc1CNCCO,IC50,[1],16.7 nM
COc1nc(O[C@H]2CCc3c(-c4cccc(C(=O)Nc5ccc(CN6CCC7(CC6)CNC(=O)C7)cn5)c4Cl)cccc32)c(Cl)cc1CN1CCC2(CC1)CNC(=O)C2,IC50,[1],17.2 nM
COc1nc(O[C@H]2CCc3c(-c4cccc(C(=O)Nc5ccc(CNCCO)cn5)c4Cl)cccc32)c(Cl)cc1CNCCO,IC50,[1],4.3 nM
Cc1c(-c2ccccc2)cccc1-c1nnc(Nc2cccc(CNCCO)c2)o1,IC50,[1],27.8 nM
COc1nc(NC(=O)c2cccc(-c3cccc4c3CC[C@@H]4Oc3nc(OC)c(CNCCNC(C)=O)cc3Cl)c2Cl)ccc1CNCCNC(C)=O,IC50,[1],22.1 nM
Cc1c(-c2nnc(Nc3ccc(CNCCO)cc3)o2)cccc1-c1cccc(-c2nnc(Nc3cccc(CNCCO)c3)o2)c1C,IC50,[1],714 nM
COc1nc(NC(=O)c2cccc(-c3cccc4c3CC[C@@H]4Oc3nc(OC)c(CNCCO)cc3Cl)c2Cl)ccc1CNCCO,IC50,[1],18.2 nM
COc1nc(O[C@H]2CCc3c(-c4cccc(C(=O)Nc5ccc(CNC[C@@H]6CCC(=O)N6)cn5)c4Cl)cccc32)c(Cl)cc1CNC[C@@H]1CCC(=O)N1,inhibition,[6],Tde
same,inhibition,CT26 [7],Active
same,half-life,[8],5.3 h
same,inhibition,[9],Dose-Dependent Effect
same,Activity,NCM460,Non-Toxic
same,AUC(0-t),[10],890 ng·h/mL
same,bioavailability,[11],1.6%
same,inhibition,[12],Active
same,Activity,CT26 [13],Dose-Dependent Effect
same,half-life,[14],5.8 h
same,Activity,L02,Non-Toxic
same,Cmax,[15],2370 ng/mL
same,inhibition in vivo at 20 mg/kg,CT26 [16],51%
same,inhibition,[17],Dose-Dependent Effect
same,Tmax,[18],0.3 h
same,inhibition in vivo at 10 mg/kg,CT26 [19],37%
same,Activity,[20],Non-Toxic
same,Activity,CT26 [21],Dose-Dependent Effect
same,Cmax,[22],22.6 ng/mL
same,Activity,[23],Non-Toxic
same,inhibition,[24],Active
same,Activity,[2],80%
same,Tmax,[25],1.8 min
same,inhibition,[26],Active
same,AUC(0-t),[27],73.1 ng·h/mL
same,IC50,[1],1.8 nM
same,Kd,[28],790 nM
same,Activity,CT26 [29],Active
same,EC50,MDA-MB-231,~800 nM
same,Kd,[30],24 nM
CC(=O)NCCNCc1ccc(NC(=O)c2cccc(-c3cccc(-c4nnc(Nc5cccc(CNCCO)c5)o4)c3C)c2C)nc1,IC50,[1],42 nM
COc1nc(O[C@H]2CCc3c(-c4cccc(C(=O)Nc5ccc(CN6CC(O)C6)cn5)c4Cl)cccc32)c(Cl)cc1CN1CC(O)C1,IC50,[1],6.3 nM
Cc1c(-c2cccc(-c3ccc(CNCCO)cc3)c2)cccc1-c1nnc(Nc2cccc(CNCCO)c2)o1,IC50,[1],42 nM
